Experimental data as given in the NIST ThermoML archive (doi:10.1021/je200808q).

Experiment: mn = molality of the nth substance listed, in mol/kg
Conditions: Liquid, Taylor dispersion method

[Cl-].[K+] [potassium chloride] + O
binary diffusion coefficient (298.15 K, 160 kPa, m1 = 0): 1.94e-09 m2/s
binary diffusion coefficient (298.15 K, 240 kPa, m1 = 1): 1.89e-09 m2/s
binary diffusion coefficient (298.15 K, 290 kPa, m1 = 2.5): 2.02e-09 m2/s
binary diffusion coefficient (298.15 K, 480 kPa, m1 = 4.5): 2.17e-09 m2/s
binary diffusion coefficient (298.15 K, 2290 kPa, m1 = 2.5): 2.02e-09 m2/s
binary diffusion coefficient (298.15 K, 4500 kPa, m1 = 2.5): 2.04e-09 m2/s
binary diffusion coefficient (298.15 K, 10170 kPa, m1 = 1): 1.91e-09 m2/s
binary diffusion coefficient (298.15 K, 14990 kPa, m1 = 0): 1.94e-09 m2/s
binary diffusion coefficient (298.15 K, 24920 kPa, m1 = 2.5): 2.04e-09 m2/s
binary diffusion coefficient (298.15 K, 27060 kPa, m1 = 4.5): 2.14e-09 m2/s
binary diffusion coefficient (298.15 K, 28210 kPa, m1 = 1): 1.92e-09 m2/s
binary diffusion coefficient (298.15 K, 30920 kPa, m1 = 0): 1.95e-09 m2/s
binary diffusion coefficient (298.15 K, 32600 kPa, m1 = 2.5): 2.05e-09 m2/s
binary diffusion coefficient (298.15 K, 37390 kPa, m1 = 2.5): 2.04e-09 m2/s
binary diffusion coefficient (298.15 K, 38630 kPa, m1 = 1): 1.92e-09 m2/s
binary diffusion coefficient (298.15 K, 43800 kPa, m1 = 4.5): 2.17e-09 m2/s
binary diffusion coefficient (298.15 K, 45590 kPa, m1 = 1): 1.95e-09 m2/s
binary diffusion coefficient (298.15 K, 47430 kPa, m1 = 2.5): 2.04e-09 m2/s
binary diffusion coefficient (298.15 K, 48170 kPa, m1 = 0): 1.95e-09 m2/s
binary diffusion coefficient (298.15 K, 59030 kPa, m1 = 1): 1.96e-09 m2/s
binary diffusion coefficient (298.15 K, 62940 kPa, m1 = 0): 1.97e-09 m2/s
binary diffusion coefficient (298.15 K, 64970 kPa, m1 = 2.5): 2.07e-09 m2/s
binary diffusion coefficient (298.15 K, 66020 kPa, m1 = 4.5): 2.18e-09 m2/s
binary diffusion coefficient (298.15 K, 66170 kPa, m1 = 2.5): 2.08e-09 m2/s
binary diffusion coefficient (298.15 K, 67070 kPa, m1 = 1): 1.98e-09 m2/s
binary diffusion coefficient (298.15 K, 67630 kPa, m1 = 2.5): 2.08e-09 m2/s
binary diffusion coefficient (323.15 K, 500 kPa, m1 = 4.5): 3.34e-09 m2/s
binary diffusion coefficient (323.15 K, 580 kPa, m1 = 2.5): 3.15e-09 m2/s
binary diffusion coefficient (323.15 K, 610 kPa, m1 = 1): 3.03e-09 m2/s
binary diffusion coefficient (323.15 K, 640 kPa, m1 = 0): 3.02e-09 m2/s
binary diffusion coefficient (323.15 K, 3950 kPa, m1 = 4.5): 3.32e-09 m2/s
binary diffusion coefficient (323.15 K, 15300 kPa, m1 = 1): 3.06e-09 m2/s
binary diffusion coefficient (323.15 K, 15460 kPa, m1 = 0): 3.02e-09 m2/s
binary diffusion coefficient (323.15 K, 31370 kPa, m1 = 4.5): 3.35e-09 m2/s
binary diffusion coefficient (323.15 K, 33580 kPa, m1 = 0): 3.08e-09 m2/s
binary diffusion coefficient (323.15 K, 40890 kPa, m1 = 2.5): 3.12e-09 m2/s
binary diffusion coefficient (323.15 K, 43400 kPa, m1 = 1): 3.08e-09 m2/s
binary diffusion coefficient (323.15 K, 45210 kPa, m1 = 2.5): 3.18e-09 m2/s
binary diffusion coefficient (323.15 K, 47480 kPa, m1 = 2.5): 3.17e-09 m2/s
binary diffusion coefficient (323.15 K, 49570 kPa, m1 = 4.5): 3.29e-09 m2/s
binary diffusion coefficient (323.15 K, 52060 kPa, m1 = 1): 3.1e-09 m2/s
binary diffusion coefficient (323.15 K, 60490 kPa, m1 = 2.5): 3.12e-09 m2/s
binary diffusion coefficient (323.15 K, 62690 kPa, m1 = 4.5): 3.35e-09 m2/s
binary diffusion coefficient (323.15 K, 64860 kPa, m1 = 2.5): 3.15e-09 m2/s
binary diffusion coefficient (323.15 K, 68560 kPa, m1 = 0): 3.09e-09 m2/s
binary diffusion coefficient (323.15 K, 68970 kPa, m1 = 1): 3.1e-09 m2/s
binary diffusion coefficient (348.15 K, 650 kPa, m1 = 0): 4.48e-09 m2/s
binary diffusion coefficient (348.15 K, 660 kPa, m1 = 1): 4.23e-09 m2/s
binary diffusion coefficient (348.15 K, 700 kPa, m1 = 2.5): 4.52e-09 m2/s
binary diffusion coefficient (348.15 K, 730 kPa, m1 = 4.5): 4.65e-09 m2/s
binary diffusion coefficient (348.15 K, 12830 kPa, m1 = 4.5): 4.59e-09 m2/s
binary diffusion coefficient (348.15 K, 15720 kPa, m1 = 0): 4.49e-09 m2/s
binary diffusion coefficient (348.15 K, 18050 kPa, m1 = 2.5): 4.55e-09 m2/s
binary diffusion coefficient (348.15 K, 25820 kPa, m1 = 1): 4.25e-09 m2/s
binary diffusion coefficient (348.15 K, 29270 kPa, m1 = 0): 4.44e-09 m2/s
binary diffusion coefficient (348.15 K, 29960 kPa, m1 = 2.5): 4.57e-09 m2/s
binary diffusion coefficient (348.15 K, 31120 kPa, m1 = 1): 4.26e-09 m2/s
binary diffusion coefficient (348.15 K, 32970 kPa, m1 = 4.5): 4.62e-09 m2/s
binary diffusion coefficient (348.15 K, 35870 kPa, m1 = 1): 4.24e-09 m2/s
binary diffusion coefficient (348.15 K, 39760 kPa, m1 = 1): 4.23e-09 m2/s
binary diffusion coefficient (348.15 K, 41210 kPa, m1 = 1): 4.25e-09 m2/s
binary diffusion coefficient (348.15 K, 41980 kPa, m1 = 1): 4.25e-09 m2/s
binary diffusion coefficient (348.15 K, 45150 kPa, m1 = 2.5): 4.58e-09 m2/s
binary diffusion coefficient (348.15 K, 45330 kPa, m1 = 1): 4.26e-09 m2/s
binary diffusion coefficient (348.15 K, 46780 kPa, m1 = 0): 4.49e-09 m2/s
binary diffusion coefficient (348.15 K, 62420 kPa, m1 = 1): 4.24e-09 m2/s
binary diffusion coefficient (348.15 K, 64020 kPa, m1 = 1): 4.25e-09 m2/s
binary diffusion coefficient (348.15 K, 65910 kPa, m1 = 4.5): 4.63e-09 m2/s
binary diffusion coefficient (348.15 K, 66700 kPa, m1 = 0): 4.52e-09 m2/s
binary diffusion coefficient (348.15 K, 67090 kPa, m1 = 1): 4.25e-09 m2/s
binary diffusion coefficient (348.15 K, 68900 kPa, m1 = 2.5): 4.59e-09 m2/s
binary diffusion coefficient (373.15 K, 740 kPa, m1 = 4.5): 6.25e-09 m2/s
binary diffusion coefficient (373.15 K, 820 kPa, m1 = 0): 6.11e-09 m2/s
binary diffusion coefficient (373.15 K, 820 kPa, m1 = 1): 5.94e-09 m2/s
binary diffusion coefficient (373.15 K, 940 kPa, m1 = 2.5): 5.92e-09 m2/s
binary diffusion coefficient (373.15 K, 17140 kPa, m1 = 2.5): 5.92e-09 m2/s
binary diffusion coefficient (373.15 K, 17780 kPa, m1 = 4.5): 6.22e-09 m2/s
binary diffusion coefficient (373.15 K, 23410 kPa, m1 = 1): 5.93e-09 m2/s
binary diffusion coefficient (373.15 K, 24180 kPa, m1 = 0): 6.14e-09 m2/s
binary diffusion coefficient (373.15 K, 24360 kPa, m1 = 2.5): 5.94e-09 m2/s
binary diffusion coefficient (373.15 K, 31320 kPa, m1 = 2.5): 5.89e-09 m2/s
binary diffusion coefficient (373.15 K, 41280 kPa, m1 = 4.5): 6.24e-09 m2/s
binary diffusion coefficient (373.15 K, 42090 kPa, m1 = 1): 5.94e-09 m2/s
binary diffusion coefficient (373.15 K, 43130 kPa, m1 = 0): 6.11e-09 m2/s
binary diffusion coefficient (373.15 K, 47550 kPa, m1 = 2.5): 5.98e-09 m2/s
binary diffusion coefficient (373.15 K, 47900 kPa, m1 = 4.5): 6.21e-09 m2/s
binary diffusion coefficient (373.15 K, 54290 kPa, m1 = 4.5): 6.24e-09 m2/s
binary diffusion coefficient (373.15 K, 54410 kPa, m1 = 4.5): 6.24e-09 m2/s
binary diffusion coefficient (373.15 K, 57260 kPa, m1 = 2.5): 5.86e-09 m2/s
binary diffusion coefficient (373.15 K, 59590 kPa, m1 = 2.5): 5.96e-09 m2/s
binary diffusion coefficient (373.15 K, 63050 kPa, m1 = 2.5): 5.96e-09 m2/s
binary diffusion coefficient (373.15 K, 64210 kPa, m1 = 1): 5.97e-09 m2/s
binary diffusion coefficient (373.15 K, 64280 kPa, m1 = 0): 6.18e-09 m2/s
binary diffusion coefficient (373.15 K, 65700 kPa, m1 = 4.5): 6.27e-09 m2/s
binary diffusion coefficient (423.15 K, 3080 kPa, m1 = 0): 1.03e-08 m2/s
binary diffusion coefficient (423.15 K, 3410 kPa, m1 = 1): 9.43e-09 m2/s
binary diffusion coefficient (423.15 K, 4440 kPa, m1 = 2.5): 9.69e-09 m2/s
binary diffusion coefficient (423.15 K, 13020 kPa, m1 = 4.5): 9.27e-09 m2/s
binary diffusion coefficient (423.15 K, 15130 kPa, m1 = 1): 9.45e-09 m2/s
binary diffusion coefficient (423.15 K, 15180 kPa, m1 = 2.5): 9.67e-09 m2/s
binary diffusion coefficient (423.15 K, 15260 kPa, m1 = 2.5): 9.68e-09 m2/s
binary diffusion coefficient (423.15 K, 18510 kPa, m1 = 0): 1.03e-08 m2/s
binary diffusion coefficient (423.15 K, 33580 kPa, m1 = 0): 1.03e-08 m2/s
binary diffusion coefficient (423.15 K, 34630 kPa, m1 = 2.5): 9.7e-09 m2/s
binary diffusion coefficient (423.15 K, 34720 kPa, m1 = 1): 9.45e-09 m2/s
binary diffusion coefficient (423.15 K, 40540 kPa, m1 = 4.5): 9.29e-09 m2/s
binary diffusion coefficient (423.15 K, 56030 kPa, m1 = 2.5): 9.7e-09 m2/s
binary diffusion coefficient (423.15 K, 61620 kPa, m1 = 1): 9.48e-09 m2/s
binary diffusion coefficient (423.15 K, 63300 kPa, m1 = 0): 1.03e-08 m2/s
binary diffusion coefficient (423.15 K, 65050 kPa, m1 = 2.5): 9.72e-09 m2/s
binary diffusion coefficient (423.15 K, 65640 kPa, m1 = 1): 9.49e-09 m2/s
binary diffusion coefficient (423.15 K, 68930 kPa, m1 = 4.5): 9.3e-09 m2/s
